Data: patent US20240252546A1, “NEURITE OUTGROWTH PROMOTION KIT AND USE THEREFOR” (KEIO UNIVERSITY, priority 2021, published 2024)

Tests used:
Assay type in all cases: cell-based, human
phosphorylated CDC25B [1] = assay: Immunostaining of phosphorylated CDC25B in treated neurospheres (Experimental Example 4); details: 201B7 neurospheres; 10 μM DAPT, 1 μM Compound 34, 24 hours; vs control
Description: (§1) Neurospheres derived from 201B7 cells were treated with various γ-secretase inhibitors in the same manner as in Experimental Example 1. As the γ-secretase inhibitor, DAPT, Compound 34, L-685,458, LY411575, Sulindac, and Compound E were used at the same concentrations as in Experimental Example 1. Subsequently, each neurosphere was fixed with paraformaldehyde and subjected to immunostaining of phosphorylated CDC25B.
FIG. 8 is a graph showing the results obtained by quantifying the amount of the phosphorylated CDC25B in the neurosphere which had been treated with each of the γ-secretase inhibitors.

phosphorylated CDC25B [2] = assay: Phosphorylated CDC25B in nerve cells after inducing differentiation (Experimental Example 12); details: 201B7 neurospheres treated 24 hours, differentiated 14 days; compared with the untreated case
Description: Neurospheres were treated with DAPT or Compound 34, and the amount of phosphorylated CDC25B after inducing differentiation into nerve cells was examined.
Neurospheres derived from 201B7 cells, which are cells of a human iPS cell line, were prepared in the same manner as in Experimental Example 1. Subsequently, each neurosphere was cultured for 24 hours in the presence of each of DAPT and Compound 34. DAPT and Compound 34 were used at the same concentrations as in Experimental Example 1.
Subsequently, each neurosphere was seeded on a 48-well chamber slide (IWAKI & CO., LTD.) coated with poly-L-ornithine/fibronectin, cultured for 14 days in a culture medium containing no growth factor at 37° C. in an environment of 95% air and 5% CO2, and differentiated into nerve cells.
Subsequently, each of the obtained nerve cells was fixed with 4% paraformaldehyde and subjected to immunostaining of each of βIII-tubulin, which is a nerve cell marker, and phosphorylated CDC25B.
FIGS. 20(a) to 20(f) show fluorescence photomicrographs showing the representative results of immunostaining. The scale bar is 100 μm. […]

p38 = assay: Expression level of p38 by RNA-seq (Experimental Example 3); details: 201B7 neurospheres, vs control
Text: FIG. 6 is a graph showing the results obtained by treating the neurosphere derived from 201B7 cells with each of DAPT and Compound 34, carrying out the RNA-seq analysis, and quantifying the expression level of p38 based on transcriptome data.

GADD45G = assay: Expression level of GADD45G in treated neurospheres by RNA-seq (Experimental Example 2); details: vs control
Description: Neurospheres derived from 201B7 cells, which are cells of a human iPS cell line, were prepared in the same manner as in Experimental Example 1.
In addition, neurospheres derived from 414C2 cells, which are cells of a human iPS cell line, were prepared according to the following method. First, 414C2 cells were subjected to adhesion culture for 12 days together with fibroblasts derived from a mouse embryo. Subsequently, the cells were subjected to suspension culture for 30 days to form a germ layer body. Subsequently, the aggregated cells were dissociated, cultured in a culture medium obtained by adding 20 ng/ml of FGF2 (PeproTech, Inc.) to an MHM medium of which the composition is shown in Table 1 above, and differentiated into neurospheres.
Subsequently, each neurosphere derived from iPS cells was treated with each of DAPT and Compound 34. Subsequently, one neurosphere having a diameter of about 100 μm was selected from the neurospheres in each group and subjected to an RNA-seq analysis.
FIG. 3 is a graph showing the results obtained by treating the neurosphere derived from 201B7 cells with each of DAPT and Compound 34, carrying out the RNA-seq analysis, and quantifying the expression level of GADD45G based on transcriptome data. In FIG. 3, “Ctl” indicates the result obtained from the control, “DAPT” indicates the result obtained by the DAPT treatment, and “C. 34” indicates the result obtained by Compound 34 treatment.

phosphorylated p38 = assay: Immunostaining of phosphorylated p38 in treated neurospheres (Experimental Example 3); details: 201B7 neurospheres; 10 μM DAPT, 1 μM Compound 34, 24 hours; vs control
Description: as §1, with “p38.” for “CDC25B.”
FIG. 5 is a graph showing the results obtained by quantifying the amount of the phosphorylated p38 in the neurosphere which had been treated with each of the γ-secretase inhibitors. In FIG. 5, “Ctl” indicates the result obtained from the control, “DAPT” indicates the result obtained by the DAPT treatment, “C. 34” indicates the result obtained by Compound 34 treatment, “L-685” indicates the result obtained by the L-685,458 treatment, “LY” indicates the result obtained by the LY411575 treatment, “Suli” indicates the result obtained by the Sulindac treatment, and “Com. E” indicates the result obtained by the Compound E treatment.

CDC25B = assay: Expression level of CDC25B by RNA-seq (Experimental Example 4); details: 201B7 neurospheres, vs control
Text: FIG. 9 is a graph showing the results obtained by treating the neurosphere derived from 201B7 cells with each of DAPT and Compound 34, carrying out the RNA-seq analysis, and quantifying the expression level of CDC25B based on transcriptome data.

[3] = neurosphere derived from 201B7 cells
[4] = neurosphere derived from 414C2 cells

Q: `O=C1Nc2ccccc2C(c2ccccc2)=N[C@@H]1NC(=O)[C@H](c1ccc(F)cc1)[C@@H](CO)c1ccc(F)c(F)c1` [Compound 34] was tested. Which “amount of phosphorylated CDC25B in the neurosphere” value (phosphorylated CDC25B [1]) did it give?
A: significantly increased

Q: What about the “amount of phosphorylated CDC25B after inducing differentiation into nerve cells” value (phosphorylated CDC25B [2]) of the same molecule?
A: increased

Q: And the “expression level of p38” value (p38)?
A: not increased

Q: And the “expression of GADD45G” value (GADD45G; [3])?
A: significantly increased

Q: What about the “expression of GADD45G” value (GADD45G; [4]) of the same molecule?
A: significantly increased

Q: What about the “amount of phosphorylated p38 in the neurosphere” value (phosphorylated p38) of the same molecule?
A: significantly increased

Q: What about the “expression level of CDC25B” value (CDC25B) of the same molecule?
A: slightly increased

Q: `C[C@H](NC(=O)Cc1cc(F)cc(F)c1)C(=O)N[C@H](C(=O)OC(C)(C)C)c1ccccc1` [DAPT] was tested. Which “amount of phosphorylated CDC25B in the neurosphere” value (phosphorylated CDC25B [1]) did it give?
A: significantly increased

Q: What about the “amount of phosphorylated CDC25B after inducing differentiation into nerve cells” value (phosphorylated CDC25B [2]) of the same molecule?
A: increased

Q: And the “expression level of p38” value (p38)?
A: not increased

Q: What about the “expression of GADD45G” value (GADD45G; [3]) of the same molecule?
A: significantly increased

Q: What about the “expression of GADD45G” value (GADD45G; [4]) of the same molecule?
A: significantly increased

Q: And the “amount of phosphorylated p38 in the neurosphere” value (phosphorylated p38)?
A: significantly increased

Q: What about the “expression level of CDC25B” value (CDC25B) of the same molecule?
A: slightly increased
